Measurements taken from patent publication US20240016781A1, “TREATMENT OF KRAS MUTANT CANCERS” (MEI Pharma, Inc., priority 2020, published 2024).

Legend:
SW-480 (CRC, KRAS G12V) = assay: Murine xenograft tumor growth inhibition, SW-480; format: in vivo, SCID mice; details: SW-480 xenograft; orally 50, 100, or 200 mg/kg OD for 11-14 days; all doses
Protocol: (§1) Voruciclib is an oral inhibitor of CDKs 9, 4, 6, and 1 currently being tested in Phase 1B clinical trials for B-cell malignancies and acute myeloid leukemia. Voruciclib inhibition of CDK9 leads to decreased expression of transcriptional targets of RNA Pol II, such as Mcl1 and MYC. To test whether Voruciclib could be effective in cancers driven by dysregulated KRAS-MYC signaling, ˜20 cancer cell lines with KRAS mutations (G12A, G12C, G12D, G12S, G12V, G13C, G13D, Q61H) were treated in preclinical studies with Voruciclib. MTS and Cell Titer Glo assays were used to monitor growth in vitro. […] To investigate MYC protein stability, MIA PACA-2 (G12C) cells were treated with 4 μM Voruciclib for 5-240 min, followed by SDS-PAGE and Western Blotting analysis with α-MYC and α-pSer62-MYC antibodies. […] A 60% decrease in pSer62 was observed after 5 min that reached 80% by 60 min. […] The ability of Voruciclib to inhibit tumor growth in vivo was also tested in murine xenograft models. KRAS mutant human cancer cells HCT-116 (CRC, KRAS G13D), SW-480 (CRC, KRAS G12V), and H-460 (NSCLC, KRAS Q61H) were injected subcutaneously into SCID mice. Once tumors reached 5-10 mm in diameter, Voruciclib or vehicle were administered orally at 50, 100, or 200 mg/kg OD for 11-14 days. Tumors were measured every 2-3 days, and growth inhibition relative to control was calculated. […]

Solid Tumors = assay: Monotherapy Phase 1 study in solid tumors, 2 weeks on/1 week off schedule; format: in vivo, human
MIA PaCa-2 xenografts = assay: CIVO intratumoral microinjection, MIA PaCa-2 xenografts; format: in vivo; details: MIA PaCa-2 PDAC tumors
From the text: Replicate Tumors: n≥5. Time Point: 24 hr. Cell Line; MIA PaCa-2. Biomarker: CC3, H&E.
The original paraffin embedded fixed tumor blocks were sliced and stained for MCL-1 and total MYC using antibodies specific to each. The MYC staining is in red. The MCL-1 staining is in yellow. The nuclei are stained in blue. For MYC and MCL-1, a decrease in the signal indicates an on-target effect of VOR.

clinical = details: human, in vivo
From the text: Voruciclib half life is designated as t½ in the tables (expressed in hours).
Voruciclib volume of distribution is designated as Vz/F (expressed in liters).

[1] = system: cancer cell lines with KRAS mutations (G12A, G12C, G12D, G12S, G12V, G13C, G13D, Q61H); assay: MTS and Cell Titer Glo growth assays in ~20 KRAS mutant cancer cell lines; format: cell-based; details: ~20 cancer cell lines with KRAS mutations
Protocol: as §1

[2] = system: Venetoclax Sensitive and Resistant Cell Lines; assay: Voruciclib + venetoclax synergy in venetoclax sensitive and resistant cell lines; format: cell-based
From the text: FIG. 4A: Ven Sensitive; FIG. 4B: Ven Resistant.

[3] = system: MYC (pSer62 and total) in MIA PACA-2 (G12C) cells; assay: Western blot of MYC and pSer62-MYC in MIA PACA-2 cells; format: cell-based; details: 4 μM Voruciclib
Protocol: Voruciclib is an oral inhibitor of CDKs 9, 4, 6, and 1 currently being tested in Phase 1B clinical trials for B-cell malignancies and acute myeloid leukemia. Voruciclib inhibition of CDK9 leads to decreased expression of transcriptional targets of RNA Pol II, such as Mcl1 and MYC. To test whether Voruciclib could be effective in cancers driven by dysregulated KRAS-MYC signaling, ˜20 cancer cell lines with KRAS mutations (G12A, G12C, G12D, G12S, G12V, G13C, G13D, Q61H) were treated in preclinical studies with Voruciclib. MTS and Cell Titer Glo assays were used to monitor growth in vitro. […] To investigate MYC protein stability, MIA PACA-2 (G12C) cells were treated with 4 μM Voruciclib for 5-240 min, followed by SDS-PAGE and Western Blotting analysis with α-MYC and α-pSer62-MYC antibodies. […] A 60% decrease in pSer62 was observed after 5 min that reached 80% by 60 min. […] The ability of Voruciclib to inhibit tumor growth in vivo was also tested in murine xenograft models. KRAS mutant human cancer cells HCT-116 (CRC, KRAS G13D), SW-480 (CRC, KRAS G12V), and H-460 (NSCLC, KRAS Q61H) were injected subcutaneously into SCID mice. Once tumors reached 5-10 mm in diameter, Voruciclib or vehicle were administered orally at 50, 100, or 200 mg/kg OD for 11-14 days. Tumors were measured every 2-3 days, and growth inhibition relative to control was calculated.
FIG. 32—Voruciclib causes rapid inhibition MYC pSer62 phosphorylation and reduces MYC protein levels. Immunoblot analyses of c-MYC, phospho-c-MYC (Ser62), and actin in MIA Paca-2 KRAS G12C mutant PDAC cells. (FIG. 32A) Cells were treated with vehicle control, voruciclib (VOR, 4 μM), or the AZD4573 (AZD, a CDK9 inhibitor, 400 nM) for the indicated times. (FIG. 32B) Cells were treated with various concentrations of voruciclib or AZD4573 for the indicated time. Relative densitometry values are indicated.

in vivo = details: SCID, mouse
Protocol: Animals were randomized into 2 groups when tumors reached 100 mm diameter. Group A assigned single dosing. […] Drug concentration was measured in tumor and plasma after last dose at the following time points: 0, 4, 8, 24, 48, 72 hrs. […] Concentration of voruciclib in plasma is in units of μg/ml and in μg/g for tumors.

[4] = 2 weeks on/i week off schedule, 75 to 850 mg, 29 pts
[5] = Phase 1 monotherapy studies in solid tumors (both schedules)

CN1CC[C@@H](c2c(O)cc(O)c3c(=O)cc(-c4ccc(C(F)(F)F)cc4Cl)oc23)[C@@H]1CO [Voruciclib, (+)-trans-2-(2-Chloro-4-trifluoromethylphenyl)-5,7-dihydroxy-8-(2-hydroxymethyl-1-methylpyrrolidin-3-yl)-chromen-4-one]
tumor growth inhibition relative to control (SW-480 (CRC, KRAS G12V)): > 50% | best response (Solid Tumors; [4]): 1 PR and 8 SD lasting 2 to 6 months | disease control rate (Solid Tumors; [4]): 41% | most common AEs (Solid Tumors; [5]): most common AEs involved GI tract | myelosuppression (Solid Tumors; [5]): no evidence of myelosuppression | MYC positive cells (MIA PaCa-2 xenografts): decrease in MYC | additional time to clear from the tissue after it clears the plasma (clinical): 3 days | time for the drug to be eliminated from the plasma after stopping (clinical): 5 to 10 days | volume of distribution (clinical): High volume of distribution | volume of distribution relative to blood volume (clinical): ~60 times | half-life (clinical; Half life): 24 to 28 h | viability (growth in vitro) [1]: decreased viability in all cell lines tested | synergy with Venetoclax [2]: Synergizes with Venetoclax | decrease in total MYC protein ([3]; 5 or 15 min): no decrease in total MYC protein | reduction in total MYC ([3]; 60 min): 10% | reduction in total MYC ([3]; 240 min): 50% | decrease in pSer62 (MYC) ([3]; after 5 min): 60% | decrease in pSer62 (MYC) ([3]; by 60 min): 80% | Kp (in vivo): > 5
